{
  "source": "paper PMC10762078",
  "about": "“Role of UPF1-LIN28A interaction during early differentiation of pluripotent stem cells” (Nature Communications, 2024)",
  "tested_on": "hPSCs",
  "assay": "RT-qPCR of pluripotency and germ-layer markers during differentiation with CPP-peptides (Supplementary Fig. 7b-e)",
  "format": "cell-based, human",
  "conditions": "for BMP2 mRNA level (RT-qPCR) / BMP4 mRNA level (RT-qPCR) / CDH2 mRNA level (RT-qPCR) / CXCR4 mRNA level (RT-qPCR) / SNAI1 mRNA level (RT-qPCR) / TBXT mRNA level (RT-qPCR): Fig. s7d",
  "protocol": "For CPP-conjugated peptide delivery, HeLa, 293T, and PA-1 cells were incubated with CPP-conjugated peptides or CPP-FITC at 2 μM in DMEM with 10% FBS for 12 h a day before cell harvest. hPSCs were treated with CPP-conjugated peptides at 10 μM in mTeSR Plus Medium, and the peptide-containing medium was changed every day over 10 days. The ROCK inhibitor (Tocris Bioscience, Y-27632) treated-hPSCs were dissociated into single cells using Accutase (Merck, SCR005) and differentiated into ectoderm, mesoderm, and endoderm using the STEMdiff Trilineage Differentiation Kit ([…] Technologies, 05230) following the manufacturer’s protocol. Differentiated cells treated with CPP-conjugated peptides were analysed at 0, 3, and 5 days for ectoderm and endoderm, and at 0, 3, and 4 days for mesoderm. […]\ncDNA was synthesised using RevertAid Reverse Transcriptase (Thermo Fisher Scientific, EP0441) with synthesised random hexamer (Macrogen) for total RNA or stem-loop primers for miRNA. For RT-qPCR reactions, the SensiFAST SYBR No-ROX kit (Meridian Bioscience) was used according to the manufacturer’s protocol. All data analysis and visualisation were conducted using R 3.6.1 [www.r-project.org] or GraphPad Prism 10. RT primers for miRNA and RT-qPCR primer sequences are provided in Supplementary Data 6. […]\nFPKM of each gene was presented f r om RNA-seq analysis. b–e hPSCs wer e treated with the indicated peptide during each germ la ye r differentiation. […]\nAn unpaired Student’s t-test was used for a–e. Data are presented as mean values ± SEM. All statistical test us ed wer e two-s ided. T he m inim um number of independent biological replicate experim ents was a–f n = 3. T he experiments wer e conducted three tim es, each iteration producing consistent results.",
  "data": [
    {"substance": "N-QKLDQKELQLEPM-C [P1, reference compound]", "values": [
      {"measurement": "CXCR4 (RT-qPCR)", "setting": "Day 0, replicate 1, Fig. s7e", "result": 1.088},
      {"measurement": "CXCR4 (RT-qPCR)", "setting": "Day 0, replicate 2, Fig. s7e", "result": 0.7848},
      {"measurement": "CXCR4 (RT-qPCR)", "setting": "Day 0, replicate 3, Fig. s7e", "result": 1.127},
      {"measurement": "CXCR4 (RT-qPCR)", "setting": "Day 3, replicate 1, Fig. s7e", "result": 801.652},
      {"measurement": "CXCR4 (RT-qPCR)", "setting": "Day 3, replicate 2, Fig. s7e", "result": 485.59},
      {"measurement": "CXCR4 (RT-qPCR)", "setting": "Day 3, replicate 3, Fig. s7e", "result": 555.318},
      {"measurement": "CXCR4 (RT-qPCR)", "setting": "Day 5, replicate 1, Fig. s7e", "result": 1042.02},
      {"measurement": "CXCR4 (RT-qPCR)", "setting": "Day 5, replicate 2, Fig. s7e", "result": 799.656},
      {"measurement": "CXCR4 (RT-qPCR)", "setting": "Day 5, replicate 3, Fig. s7e", "result": 801.596},
      {"measurement": "Mean CXCR4 (RT-qPCR)", "setting": "CXCR4 day 3, mean of n = 3, Fig. s7e", "result": 614.2},
      {"measurement": "Mean CXCR4 (RT-qPCR)", "setting": "CXCR4 day 5, mean of n = 3, Fig. s7e", "result": 881.1},
      {"measurement": "FOXA1 (RT-qPCR)", "setting": "Day 0, replicate 1, Fig. s7e", "result": 1.247},
      {"measurement": "FOXA1 (RT-qPCR)", "setting": "Day 0, replicate 2, Fig. s7e", "result": 1.413},
      {"measurement": "FOXA1 (RT-qPCR)", "setting": "Day 0, replicate 3, Fig. s7e", "result": 0.3396},
      {"measurement": "FOXA1 (RT-qPCR)", "setting": "Day 3, replicate 1, Fig. s7e", "result": 110.429},
      {"measurement": "FOXA1 (RT-qPCR)", "setting": "Day 3, replicate 2, Fig. s7e", "result": 100.761},
      {"measurement": "FOXA1 (RT-qPCR)", "setting": "Day 3, replicate 3, Fig. s7e", "result": 171.159},
      {"measurement": "FOXA1 (RT-qPCR)", "setting": "Day 5, replicate 1, Fig. s7e", "result": 247.532},
      {"measurement": "FOXA1 (RT-qPCR)", "setting": "Day 5, replicate 2, Fig. s7e", "result": 297.277},
      {"measurement": "FOXA1 (RT-qPCR)", "setting": "Day 5, replicate 3, Fig. s7e", "result": 395.679},
      {"measurement": "Mean FOXA1 (RT-qPCR)", "setting": "FOXA1 day 5, mean of n = 3, Fig. s7e", "result": 313.5},
      {"measurement": "SOX2 mRNA level (RT-qPCR), mean", "setting": "Fig. s7b, mesoderm, day 4, mean of 3 replicates", "result": 0.001971},
      {"measurement": "BMP2 mRNA level (RT-qPCR)", "setting": "Day 0, replicate 1", "result": 0.8054},
      {"measurement": "BMP4 mRNA level (RT-qPCR)", "setting": "Day 0, replicate 1", "result": 1.545},
      {"measurement": "CDH2 mRNA level (RT-qPCR)", "setting": "Day 0, replicate 1", "result": 1.016},
      {"measurement": "CXCR4 mRNA level (RT-qPCR)", "setting": "Day 0, replicate 1", "result": 0.9995},
      {"measurement": "SNAI1 mRNA level (RT-qPCR)", "setting": "Day 0, replicate 1", "result": 1.4406},
      {"measurement": "TBXT mRNA level (RT-qPCR)", "setting": "Day 0, replicate 1", "result": 1.3},
      {"measurement": "BMP2 mRNA level (RT-qPCR)", "setting": "Day 0, replicate 2", "result": 1.199},
      {"measurement": "BMP4 mRNA level (RT-qPCR)", "setting": "Day 0, replicate 2", "result": 0.6508},
      {"measurement": "CDH2 mRNA level (RT-qPCR)", "setting": "Day 0, replicate 2", "result": 0.7569},
      {"measurement": "CXCR4 mRNA level (RT-qPCR)", "setting": "Day 0, replicate 2", "result": 1.121},
      {"measurement": "SNAI1 mRNA level (RT-qPCR)", "setting": "Day 0, replicate 2", "result": 0.9418},
      {"measurement": "TBXT mRNA level (RT-qPCR)", "setting": "Day 0, replicate 2", "result": 0.8652},
      {"measurement": "BMP2 mRNA level (RT-qPCR)", "setting": "Day 0, replicate 3", "result": 0.9954},
      {"measurement": "BMP4 mRNA level (RT-qPCR)", "setting": "Day 0, replicate 3", "result": 0.8046},
      {"measurement": "CDH2 mRNA level (RT-qPCR)", "setting": "Day 0, replicate 3", "result": 1.227},
      {"measurement": "CXCR4 mRNA level (RT-qPCR)", "setting": "Day 0, replicate 3", "result": 0.8798},
      {"measurement": "SNAI1 mRNA level (RT-qPCR)", "setting": "Day 0, replicate 3", "result": 0.6176},
      {"measurement": "TBXT mRNA level (RT-qPCR)", "setting": "Day 0, replicate 3", "result": 0.8351},
      {"measurement": "BMP2 mRNA level (RT-qPCR)", "setting": "Day 3, replicate 1", "result": 1.069},
      {"measurement": "BMP4 mRNA level (RT-qPCR)", "setting": "Day 3, replicate 1", "result": 26.604},
      {"measurement": "CDH2 mRNA level (RT-qPCR)", "setting": "Day 3, replicate 1", "result": 19.4651},
      {"measurement": "CXCR4 mRNA level (RT-qPCR)", "setting": "Day 3, replicate 1", "result": 690.154},
      {"measurement": "SNAI1 mRNA level (RT-qPCR)", "setting": "Day 3, replicate 1", "result": 17.0238},
      {"measurement": "TBXT mRNA level (RT-qPCR)", "setting": "Day 3, replicate 1", "result": 6332.26},
      {"measurement": "BMP2 mRNA level (RT-qPCR)", "setting": "Day 3, replicate 2", "result": 1.012},
      {"measurement": "BMP4 mRNA level (RT-qPCR)", "setting": "Day 3, replicate 2", "result": 28.0652},
      {"measurement": "CDH2 mRNA level (RT-qPCR)", "setting": "Day 3, replicate 2", "result": 19.9537},
      {"measurement": "CXCR4 mRNA level (RT-qPCR)", "setting": "Day 3, replicate 2", "result": 760.409},
      {"measurement": "SNAI1 mRNA level (RT-qPCR)", "setting": "Day 3, replicate 2", "result": 25.1744},
      {"measurement": "TBXT mRNA level (RT-qPCR)", "setting": "Day 3, replicate 2", "result": 7659.6},
      {"measurement": "BMP2 mRNA level (RT-qPCR)", "setting": "Day 3, replicate 3", "result": 1.524},
      {"measurement": "BMP4 mRNA level (RT-qPCR)", "setting": "Day 3, replicate 3", "result": 46.0509},
      {"measurement": "CDH2 mRNA level (RT-qPCR)", "setting": "Day 3, replicate 3", "result": 27.2966},
      {"measurement": "CXCR4 mRNA level (RT-qPCR)", "setting": "Day 3, replicate 3", "result": 857.014}
    ]}
  ]
}
